# Source: US20240252454A1, “COMPOSITION COMPRISING AN INHIBITOR OF MITOCHONDRIAL TRANSCRIPTION” (LEAD DISCOVERY CENTER GMBH, priority 2021, published 2024)
# Experiments:
# Assay type in all cases: cell-based
# [1] = tested on: A2780; assay: CellTiter-GLO (CTG) assay, combinatorial matrix; conditions: for Measured residual activity (cellular ATP content): A2780, 72 hours, untreated control =100%
# Description: (§1) To determine the in vitro cellular viability, cellular ATP concentrations were measured using a luminescence-based homogenous assay format, as described here. […] Optimal cell density for each cell line was determined to guarantee linearity. For viability assays with compounds, cells were then seeded at a density of 200 to 1000 per well in 25 μl in 384-well plates (Greiner Bio-One, Frickenhausen, Germany). After overnight incubation at 37° C./5% CO2, 25 nl or 75 nl compounds were added to each sample well by using BIOMEK FXP Laboratory Automation Workstation (Beckman Coulter, USA). Wells with cells and 0.1% or 0.3% DMSO in culture medium were used as positive controls, wells with cells and 10 μM staurosporine (Selleck Chemicals, Huston, USA) in culture medium were used as negative controls. Upon incubation with compounds for 72 h at 37° C./5% CO2 25 μl Cell Titer Glo reagent (Promega, Madison, USA, European Pat. No. 1131441, U.S. Pat. Nos. 7,083,911, 7,452,663 and 7,732,128) 1:2 diluted with cell culture medium) was added to each well to determine cell viability. 384well-plates were placed for 2 min on an orbital microplate shaker and incubated for further 10 min at room temperature resulting in a stabilization of light signal. Luminescence was measured by Envision Plate Reader (Perkin Elmer, USA).
# (§2) All in vitro cell culture experiments were carried out under near physiological glucose concentrations (5 mM) in at least two independent replicates.
# [2] = tested on: HEC59; assay: CellTiter-GLO (CTG) assay, combinatorial matrix; conditions: HEC59, 72 hours, BAY-876 0 (IMT alone), IMT at the μM of c0, untreated control =100%
# Description: as §1, §2
# (§3) To establish the method described, N,N-dimethyl-2-[4-(o-tolyl)-2-oxo-chromen-7-yl]oxy-propanamide, (3S)-1-[2-[4-(2-chloro-4-fluoro-phenyl)-2-oxo-chromen-7-yl]oxypropanoyl]piperidine-3-carboxylic acid, (3S)-1-[(2R)-2-[4-(2-chloro-4-fluoro-phenyl)-2-oxo-chromen-7-yl]oxypropanoyl]piperidine-3-carboxylic acid and BAY-876 were first examined with regard to their effect on the cell growth of twelve different tumour cell lines and the IC50 values were determined. This initial study was followed by validation experiments in a matrix format and in the CTG assay, as described under Example 1), in two tumour cell lines from uterine and ovarian carcinoma (HEC59 and A2780), as well as in primary human blood cells (PBMC) (Table 7).
# (§4) Combinations of one concentration of IMT (μM; y-axis) and 30 μM-33 nM BAY-876 (x-axis) were incubated for 72 hours with HEC59, hPBMCs or A2780 and then the cellular ATP-content was determined using the CellTiter-GLO assay format. A: Measured residual activity (%) based on an untreated control group (=100%). B: The combinatorial indices are provided, based on the reference groups treated with the corresponding concentration of only one inhibitor class, according to Berenbaum and Cou & Talalay. <1=synergism, 1-2=additivity, 2>=antagonism.
# [3] = tested on: primary human blood cells (PBMC); assay: CellTiter-GLO (CTG) assay, combinatorial matrix; conditions: hPBMCs, 72 hours, BAY-876 0 (IMT alone), IMT at the μM of c0, untreated control =100%
# Description: as §1, §2, §3, §4
# [4] = tested on: A2780; assay: SRB assay, IMT combined with inhibitor; conditions: A2780; dilution series of the IMT + MEK inhibitor Selumetinib (AZD6244) at constant 1 μM or 31 nM; compared to untreated or MEK inhibitor only (FIG. 1)
# Description: In two studies, the ovarian cell line A2780 was tested for 72 hours with the IMT N,N-dimethyl-2-[4-(o-tolyl)-2-oxo-chromen-7-yl]oxy-propanamide (30 μM-15 nM) and the MEK inhibitor Selumetinib (30 μM-10 nM), or with the IMT 1-[2-[4-(2-chlorophenyl)-2-oxo-chromen-7-yl]oxypropanoyl]piperidine-3-sulfonamide (30 μM-15 nM) and the MEK inhibitor PD318088 (30 μM-10 nM).
# Solforhodamine B assay is carried out as described in Voigt W. (2005) Sulforhodamine B Assay and Chemosensitivity. (Methods in Molecular Medicine™, vol 110. Humana Press. https://doi.org/10.1385/1-59259-869-2:039).
# The determination of changes in cellular biomass was based on the Solforhodamine B assay format, carried out as described in Voigt W. (2005) Sulforhodamine B Assay and Chemosensitivity. (Methods in Molecular Medicine™, vol 110. Humana Press. https://doi.org/10.1385/1-59259-869-2:039).
# as §2
# First, 30 different cell lines from 14 different tissue types were tested in the SRB assay format. The cells were examined individually for changes in growth over a period of 120 hours with dilution series of both inhibitors. Untreated cells were used as a negative control group. Subsequently, a dilution series of the respective MAPK signalling pathway SOCs was treated in combination with a fixed concentration of 40 nM (3S)-1-[(2R)-2-[4-(2-chloro-4-fluoro-phenyl)-2-oxo-chromen-7-yl]oxypropanoyl]piperidine-3-carboxylic acid.
# [5] = tested on: HEC59; assay: CellTiter-GLO (CTG) assay, combinatorial matrix; conditions: 30 μM to 15 nM IMT + 30 μM to 40 nM BAY-876
SMILES,"Measured residual activity (cellular ATP content) ([1]; BAY-876 0 (IMT alone), IMT at the μM of c0, IMT 0.12 µM)","Measured residual activity (cellular ATP content) ([1]; BAY-876 0 (IMT alone), IMT at the μM of c0, IMT 0.47 µM)","Measured residual activity (cellular ATP content) ([1]; BAY-876 0 (IMT alone), IMT at the μM of c0, IMT 1.88 µM)","Measured residual activity (cellular ATP content) ([1]; Olaparib 0 (IMT alone), IMT (3S)-1-[(2R)-2-[4-(2-chloro-4-fluoro-phenyl)-2-oxo-chromen-7-yl]oxypropanoyl]piperidine-3-carboxylic acid at the μM of c0)","Measured residual activity (cellular ATP content) ([1]; Rucaparib 0 (IMT alone), IMT (3S)-1-[(2R)-2-[4-(2-chloro-4-fluoro-phenyl)-2-oxo-chromen-7-yl]oxypropanoyl]piperidine-3-carboxylic acid at the μM of c0)","Measured residual activity (cellular ATP content) ([1]; Veliparib 0 (IMT alone), IMT (3S)-1-[(2R)-2-[4-(2-chloro-4-fluoro-phenyl)-2-oxo-chromen-7-yl]oxypropanoyl]piperidine-3-carboxylic acid at the μM of c0, IMT 0.2 µM)","Measured residual activity (cellular ATP content) ([1]; Veliparib 0 (IMT alone), IMT (3S)-1-[(2R)-2-[4-(2-chloro-4-fluoro-phenyl)-2-oxo-chromen-7-yl]oxypropanoyl]piperidine-3-carboxylic acid at the μM of c0, IMT 7.5 µM)",Measured residual activity (cellular ATP content) ([2]; IMT 0.005 µM),Measured residual activity (cellular ATP content) ([2]; IMT 1.25 µM),Measured residual activity (cellular ATP content) ([3]; IMT 0.059 µM),Measured residual activity (cellular ATP content) ([3]; IMT 0.234 µM),growth kinetics in the SRB assay format [4],"combination of IMT and GLUTi compared to treatment with only the GLUTi BAY-876 alone ([1]; A2780, CTG matrix, 30 μM to 15 nM IMT + 30 μM to 40 nM BAY-876)",combination of IMT and GLUTi compared to treatment with only the GLUTi BAY-876 alone [5]
C[C@@H](Oc1ccc2c(-c3ccc(F)cc3Cl)cc(=O)oc2c1)C(=O)N1CCC[C@H](C(=O)O)C1 [IMT],35%,32%,29%,30%,25%,29%,31%,99%,39%,98%,94%,,,
CC(Oc1ccc2c(-c3ccc(F)cc3Cl)cc(=O)oc2c1)C(=O)N1CCC[C@H](C(=O)O)C1 (stereo partly drawn) [(3S)-1-[2-[4-(2-chloro-4-fluoro-phenyl)-2-oxo-chromen-7-yl]oxypropanoyl]piperidine-3-carboxylic acid],,,,,,,,,,,,advantage of the combination treatment,advantage of the combination,advantage of the combination
